ChEMBL document CHEMBL5260850, “The exploration of aza-quinolines as hematopoietic prostaglandin D synthase (H-PGDS) inhibitors with low brain exposure” (Bioorg Med Chem, 2020)
Values after ≈ are worked out from the molar mass of the structure shown.

Key:
[1] = Solubility of the compound in FaSSIF at pH 6.5 measured after 4 hrs by HPLC-UV analysis; assay type: ADME
Albumin = Albumin (Homo sapiens, UniProt P02768); experiment: Protein binding in human serum albumin by HPLC analysis; assay type: ADME, cell-free; details: read-out: PB (converted)
Albumin, sequence (P02768 whole entry): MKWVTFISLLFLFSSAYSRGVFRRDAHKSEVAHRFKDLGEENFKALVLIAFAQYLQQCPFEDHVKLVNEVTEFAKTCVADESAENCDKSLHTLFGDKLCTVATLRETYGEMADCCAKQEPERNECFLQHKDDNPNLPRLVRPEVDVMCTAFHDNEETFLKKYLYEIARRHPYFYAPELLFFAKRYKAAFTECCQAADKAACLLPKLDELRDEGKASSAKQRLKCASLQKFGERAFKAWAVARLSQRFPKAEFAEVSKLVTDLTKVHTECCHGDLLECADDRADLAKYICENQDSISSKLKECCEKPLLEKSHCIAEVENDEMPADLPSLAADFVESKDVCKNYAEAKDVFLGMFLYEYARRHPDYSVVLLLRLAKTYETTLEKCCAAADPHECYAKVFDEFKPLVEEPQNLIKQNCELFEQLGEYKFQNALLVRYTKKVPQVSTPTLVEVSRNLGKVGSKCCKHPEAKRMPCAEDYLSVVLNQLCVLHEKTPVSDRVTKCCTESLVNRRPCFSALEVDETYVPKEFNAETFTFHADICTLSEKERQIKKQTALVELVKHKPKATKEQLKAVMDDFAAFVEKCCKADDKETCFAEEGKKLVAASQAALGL

[2] = target: Hematopoietic prostaglandin D synthase (Homo sapiens, UniProt O60760); experiment: Inhibition of human H-PGDS expressed in Escherichia coli BL21 DE3 cells assessed as reduction in PGD2 production using PGH2 as substrate by RapidFire High Throughput Mass spectrometry
Hematopoietic prostaglandin D synthase (Homo sapiens, UniProt O60760), sequence (O60760 whole entry): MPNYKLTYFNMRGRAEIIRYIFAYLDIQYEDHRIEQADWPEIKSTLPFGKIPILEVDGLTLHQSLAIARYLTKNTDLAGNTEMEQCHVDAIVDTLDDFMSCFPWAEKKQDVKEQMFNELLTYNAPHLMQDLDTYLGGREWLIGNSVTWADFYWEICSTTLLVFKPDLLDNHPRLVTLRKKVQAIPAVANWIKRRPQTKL

[3] = target: T1, Hematopoietic prostaglandin D synthase (Rattus norvegicus, UniProt O35543); experiment: Inhibition of H-PGDS in rat RBL cells assessed as reduction in A23187-induced PGD2 production pretreated for 30 mins followed by A23187 addition for 30 mins by RapidFire Mass spectrometry; assay type: cell-based
T1 sequence (O35543 whole entry): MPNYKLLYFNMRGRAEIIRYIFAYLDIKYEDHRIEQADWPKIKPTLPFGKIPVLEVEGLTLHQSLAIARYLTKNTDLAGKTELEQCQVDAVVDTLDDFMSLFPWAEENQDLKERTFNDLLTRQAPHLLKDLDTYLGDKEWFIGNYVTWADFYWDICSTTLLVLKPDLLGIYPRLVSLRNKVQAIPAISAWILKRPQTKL

[4] = Dose normalized AUC in mouse at 3 mg/kg, po; assay type: ADME, organism-based; parameters: unit not given here; details: in vivo
[5] = Half life in mouse S9 fraction pretreated for 5 mins followed by incubation with NADP for 30 secs and measured upto 45 mins by LC-MS/MS analysis; assay type: ADME, subcellular; details: time 3030 sec
[6] = Apparent permeability, Papp of the compound at pH 7.4 incubated for 3 hrs by AMP based liquid chromatography; assay type: ADME; details: not told
[7] = Dissociation constant, pKa of the compound by UV spectroscopy or potentiometric analysis; assay type: physicochemical
[8] = Half life in mouse liver microsomes pretreated for 5 mins followed by incubation with NADP for 30 secs and measured upto 45 mins by LC-MS/MS analysis; assay type: ADME, Microsome; details: time 3030 sec
[9] = Ratio of drug level in brain to blood in mouse at 1 mg/kg, iv; assay type: ADME, organism-based; details: read-out: BBR
[10] = Terminal half life in mouse at 1 mg/kg, iv; assay type: ADME, organism-based; details: in vivo, read-out: beta t1/2 (converted)
[11] = Oral bioavailability in mouse at 3 mg/kg; assay type: ADME, organism-based; details: in vivo
[12] = Clearance in mouse at 1 mg/kg, iv; assay type: ADME, organism-based; details: in vivo
[13] = Volume of distribution at steady state in mouse at 1 mg/kg, iv; assay type: ADME, organism-based; details: in vivo, read-out: Vdss

Row | Compound | solubility at 4 h [1] | fraction unbound (Albumin) | IC50 [2] | EC50 [3] | AUC/dose [4] | half-life [5] | Papp at 3 h [6] | pKa [7] | half-life [8] | Kp [9] | half-life [10] | bioavailability [11] | clearance [12] | Vd [13]
1 | CC(C)(O)[C@H]1CC[C@H](NC(=O)c2cnc3nc(N4CCC4)ccc3c2)CC1 | 3 µg/mL (≈ 8.14 µM) | 0.2 | 5.3 nM | 75 nM | 72.5 | > 3 h | 2.3 ×10⁻⁶ cm/s |  |  |  |  |  |  | 
2 | O=C(N[C@H]1CCNC1=O)c1cnc2cc(N3CCC3)ncc2c1 | 400 µg/mL (≈ 1280 µM) | 0.41 | 12 nM | 110 nM | 250 | > 3 h | < 1 ×10⁻⁶ cm/s |  |  |  |  |  |  | 
3 | CC(C)(O)[C@H]1CC[C@H](NC(=O)c2cnc3cc(N4CC(F)C4)ncc3c2)CC1 | 13 µg/mL (≈ 33.6 µM) | 0.27 | 12 nM | 170 nM | 19.3 | > 3 h |  |  |  |  |  |  |  | 
4 | COc1cnc2cc(C(=O)N[C@H]3CC[C@H](C(C)(C)O)CC3)cnc2c1 |  |  | 180 nM | 740 nM |  |  |  | < 2 |  |  |  |  |  | 
5 | COc1ccc2c(c1)N=CN(C(=O)N[C@H]1CC[C@H](C(C)(C)O)CC1)C2 |  |  | 890 nM | 4300 nM |  |  |  | 4.31 |  |  |  |  |  | 
6 | CC(C)(O)[C@H]1CC[C@H](NC(=O)c2cnc3cc(N4CCC4)ncc3c2)CC1 | 11 µg/mL (≈ 29.9 µM) | 0.21 | 3.9 nM | 24 nM | 41 | 2.68 h | 7.8 ×10⁻⁶ cm/s |  |  |  |  |  |  | 
7 | C[C@]1(O)C[C@@H](NC(=O)c2cnc3cc(N4CCC4)ncc3c2)C1 | 460 µg/mL (≈ 1470 µM) | 0.48 | 56 nM | 450 nM | 46.9 | > 3 h | 3.8 ×10⁻⁶ cm/s |  |  |  |  |  |  | 
8 | CC(C)(O)[C@]12C[C@@](NC(=O)c3cnc4nc(C5CC5)ccc4c3)(C1)C2 | 400 µg/mL (≈ 1190 µM) | 0.31 | 17 nM | 230 nM | 285 |  | 3.4 ×10⁻⁶ cm/s |  | > 3 h |  |  |  |  | 
9 | COc1cc2ncc(C(=O)N[C@H]3CC[C@H](C(C)(C)O)CC3)cc2cn1 | 85 µg/mL (≈ 248 µM) | 0.33 | 45 nM | 190 nM | 104 |  | 6.1 ×10⁻⁶ cm/s | < 2 | > 3 h |  |  |  |  | 
10 | COc1ccc2nc(C(=O)N[C@H]3CC[C@H](C(C)(C)O)CC3)cnc2c1 |  |  | 490 nM | 3200 nM |  |  |  | < 2 |  |  |  |  |  | 
11 | C[C@]1(O)C[C@@H](NC(=O)c2cnc3nc(C4CC4)c(Cl)cc3c2)C1 | 31 µg/mL (≈ 93.4 µM) | 0.13 | 7.1 nM | 54 nM | 152 |  | 22 ×10⁻⁶ cm/s |  | > 3 h |  |  |  |  | 
12 | C[C@H]1CCN1c1ccc2cc(C(=O)N[C@H]3CC[C@H](C(C)(C)O)CC3)cnc2n1 | 270 µg/mL (≈ 706 µM) | 0.22 | 4.4 nM | 14 nM | 73.7 | > 3 h | 2.5 ×10⁻⁶ cm/s |  |  |  |  |  |  | 
13 | CC(C)(O)[C@H]1CC[C@H](NC(=O)c2cnc3ccccc3c2)CC1 |  |  | 1800 nM | 30000 nM |  |  |  | 3.02 |  |  |  |  |  | 
14 | COc1ncc2cc(C(=O)N[C@H]3CC[C@H](C(C)(C)O)CC3)cnc2n1 |  |  | 140 nM | 2000 nM |  |  |  | < 2 |  |  |  |  |  | 
15 | CC(C)(O)[C@H]1CC[C@H](NC(=O)c2cnc3cc(C4CC4)ncc3c2)CC1 | 27 µg/mL (≈ 76.4 µM) | 0.16 | 14 nM | 94 nM | 1040 | > 3 h | 16.5 ×10⁻⁶ cm/s |  |  | 0.17 | 1.1 h | 130% | 22 mL/min/kg | 1.6 L/kg
16 | CC(C)(O)[C@H]1C[C@H](NC(=O)c2cnc3cc(C4CC4)ncc3c2)C1 | 280 µg/mL (≈ 860 µM) | 0.24 | 65 nM | 280 nM | 45.3 |  | 13 ×10⁻⁶ cm/s |  | > 3 h |  |  |  |  | 
17 | C[C@H]1CCN1c1nc2ncc(C(=O)N[C@H]3CCNC3=O)cc2cc1Cl | > 1000 µg/mL | 0.19 | 5.1 nM | 3.8 nM | 86.2 |  | < 0.3 ×10⁻⁶ cm/s |  | > 3 h |  |  |  |  | 
18 | COc1ccc2cc(C(=O)N[C@H]3CC[C@H](C(C)(C)O)CC3)cnc2n1 | 24 µg/mL (≈ 69.9 µM) | 0.27 | 30 nM | 150 nM | 64.9 |  |  | 2.58 | > 3 h |  |  |  |  | 
19 | CC(C)(O)[C@H]1CC[C@H](NC(=O)c2cnc3cnccc3c2)CC1 |  |  | 7700 nM | 39000 nM |  |  |  | 2.74 |  |  |  |  |  | 
20 | C[C@H]1CCN1c1nc2ncc(C(=O)N[C@H]3CC[C@](C)(O)CC3)cc2cc1Cl | 740 µg/mL (≈ 1900 µM) | 0.13 | 4.6 nM | 3.7 nM | 132 |  | 11 ×10⁻⁶ cm/s |  | > 3 h |  |  |  |  | 
21 | COc1ccc2cc(C(=O)N[C@H]3CC[C@H](C(C)(C)O)CC3)nnc2c1 |  |  | 7900 nM | > 50000 nM |  |  |  | < 2 |  |  |  |  |  | 
22 | COc1ccc2cc(C(=O)N[C@H]3CC[C@H](C(C)(C)O)CC3)cnc2c1 |  |  |  | 100 nM |  |  |  | 3.59 |  |  |  |  |  | 
23 | O=C(N[C@H]1CCNC1=O)c1cnc2nc(C3CC3)c(Cl)cc2c1 | 120 µg/mL (≈ 363 µM) | 0.19 | 4.6 nM | 14 nM | 252 |  | 3 ×10⁻⁶ cm/s |  | > 3 h |  |  |  |  | 
24 | CC(N[C@H]1CC[C@H](NC(=O)c2cnc3nc(C4CC4)ccc3c2)CC1)C(F)F (mixture of isomers) | > 1000 µg/mL | 0.18 | 11 nM | 28 nM | 681 |  | 17 ×10⁻⁶ cm/s |  | > 3 h |  |  |  |  | 
25 | C[C@H]1CCN1c1cc2ncc(C(=O)N[C@H]3CCNC3=O)cc2cn1 | 630 µg/mL (≈ 1940 µM) | 0.44 | 37 nM | 260 nM | 715 |  | 1.4 ×10⁻⁶ cm/s |  | > 3 h |  |  |  |  | 
26 | CC(C)(O)[C@H]1C[C@H](NC(=O)c2cnc3nc(C4CC4)c(Cl)cc3c2)C1 | 46 µg/mL (≈ 128 µM) | 0.12 | 3.9 nM | 11 nM | 45.2 |  | 28 ×10⁻⁶ cm/s |  | > 3 h |  |  |  |  | 
